Laboratory results from paper PMC5306220 (European Journal of Clinical Pharmacology, 2016).

How the values were obtained:
[1] = Safety: treatment-emergent adverse events, laboratory tests, vital signs, ECG;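 also: dosing after fasting overnight (8 h minimum), clinic stay to day 2, outpatient visits on days 3 and 4, and a telephone check for adverse events about 14 days after study exit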
[2] = Population PK/PD model fitted to study data: PK parameter estimates; type: in vivo, human; details: PK/PD model typical value
From the text: To bridge the adult and pediatric PK, the PK model included weight as an initial covariate on clearance and volume of distribution parameters, as shown in the following equation: Pi=Ppop⋅WTi/WTreference^b⋅e^ηi

[3] = Plasma and urine pharmacokinetics of alogliptin after a single oral dose (LC-MS/MS, noncompartmental)
blood pressure = details: patients with T2DM; cited from earlier work
[4] = 12.5 mg single dose, Group 1 10 to <14 years, N = 5
[5] = 12.5 mg single dose, Group 2 14 to <18 years, N = 8
[6] = 25 mg single dose, Group 1 10 to <14 years, N = 4
[7] = 25 mg single dose, Group 2 14 to <18 years, N = 7
[8] = 25 mg single dose, Group 3 Adults, N = 22
[9] = entire study period, all 46 subjects
[10] = pediatric subjects, 12.5-mg dose vs adults 25 mg

Cn1c(=O)cc(N2CCC[C@@H](N)C2)n(Cc2ccccc2C#N)c1=O [alogliptin]
Mild TEAEs: Subjects, N (%) [1, 4]: 3 (60.0) | Moderate TEAEs: Subjects, N (%) [1, 4]: 0 | Not related TEAEs: Subjects, N (%) [1, 4]: 1 (20.0) | Related TEAEs: Subjects, N (%) [1, 4]: 2 (40.0) | Severe TEAEs: Subjects, N (%) [1, 4]: 0 | TEAEs: Subjects, N (%) [1, 4]: 3 (60.0) | Mild TEAEs: Subjects, N (%) [1, 5]: 5 (62.5) | Moderate TEAEs: Subjects, N (%) [1, 5]: 0 | Not related TEAEs: Subjects, N (%) [1, 5]: 3 (37.5) | Related TEAEs: Subjects, N (%) [1, 5]: 2 (25.0) | Severe TEAEs: Subjects, N (%) [1, 5]: 0 | TEAEs: Subjects, N (%) [1, 5]: 5 (62.5) | Mild TEAEs: Subjects, N (%) [1, 6]: 1 (25.0) | Moderate TEAEs: Subjects, N (%) [1, 6]: 0 | Not related TEAEs: Subjects, N (%) [1, 6]: 1 (25.0) | Related TEAEs: Subjects, N (%) [1, 6]: 0 | Severe TEAEs: Subjects, N (%) [1, 6]: 0 | TEAEs: Subjects, N (%) [1, 6]: 1 (25.0) | Mild TEAEs: Subjects, N (%) [1, 7]: 2 (28.6) | Moderate TEAEs: Subjects, N (%) [1, 7]: 0 | Not related TEAEs: Subjects, N (%) [1, 7]: 2 (28.6) | Related TEAEs: Subjects, N (%) [1, 7]: 0 | Severe TEAEs: Subjects, N (%) [1, 7]: 0 | TEAEs: Subjects, N (%) [1, 7]: 2 (28.6) | Mild TEAEs: Subjects, N (%) [1, 8]: 7 (31.8) | Moderate TEAEs: Subjects, N (%) [1, 8]: 1 (4.5) | Not related TEAEs: Subjects, N (%) [1, 8]: 4 (18.2) | Related TEAEs: Subjects, N (%) [1, 8]: 5 (22.7) | Severe TEAEs: Subjects, N (%) [1, 8]: 1 (4.5) | TEAEs: Subjects, N (%) [1, 8]: 9 (40.9) | AEs leading to study drug discontinuation ([1]; entire study): No AEs led to study drug discontinuation | abnormal ECG results reported as TEAE ([1]; entire study): No abnormal ECG result was reported as a TEAE | deaths ([1]; entire study): no deaths occurred | number of TEAEs [1, 9]: 36 | subjects who experienced TEAEs [1, 9]: 20 | tolerability ([1]; single doses 12.5 and 25 mg, pediatric and adult subjects): well tolerated | Absorption rate constant [KA] in adult subjects ([2]; adult subjects): 1.66 h⁻¹ | Oral clearance [CL/F] in adult subjects ([2]; adult subjects, reference body weight 70 kg): 13.0 L/h | Absorption rate constant [KA] in pediatric subjects ([2]; pediatric subjects): 0.590 h⁻¹ | Oral clearance [CL/F] in pediatric subjects ([2]; pediatric subjects, reference body weight 70 kg): 14.4 L/h | Vd/F ([2]; human, plasma, oral, read-out: Central volume of distribution [V2/F]): 125 L | mean CL/F higher in all pediatric subjects compared with adult subjects ([3]; groups 1 and 2 vs adults): up to 37% | Tmax ([3]; human, plasma, po): 2 to 4 h | correlation between dose-normalized AUC0-inf and creatinine clearance ([3]; pediatric and adult subjects): no correlations were observed | mean AUC0-inf lower than in adults [3, 10]: 54% | mean Cmax lower than in adults [3, 10]: 58% | mean AUC0-inf lower than in adults receiving the 25-mg dose ([3]; pediatric subjects, 25-mg dose): 23% | mean Cmax lower than in adults receiving the 25-mg dose ([3]; pediatric subjects, 25-mg dose): 26% | effect on blood pressure (blood pressure): lower blood pressure
